From patent publication US9370507B2, “Pyridonyl guanidine F1F0-ATPase inhibitors and therapeutic uses thereof” (Lycera Corporation, priority 2010, dated 2016)

Legend:
F1F0-ATPase = molecular target: T1, F1F0-ATPase (Bos taurus, UniProt P13621); assay: Inhibition of F1F0-ATPase activity in synthesizing ATP; type: biochemical; settings: inhibition of ATP synthesis; read-out: ATP Syn IC50
T1 construct: from tissue
Protocol: (§1) The compounds listed in Table 4 were tested for activity against F1F0-ATPase by measuring the ability of the compounds to inhibit ATP synthesis. In addition, the compounds were assessed for cytotoxicity in Ramos cells Inhibition of F1F0-ATPase activity in synthesizing ATP and cytotoxicity in Ramos cells were measured according to the procedures described in K. M. Johnson et al. Chemistry & Biology 2005, 12, 485-496.

Ramos cells = assay: Cytotoxicity in Ramos cells; type: cell-based; settings: Homo sapiens, read-out: Ramos Cell EC50
Protocol: as §1

Structure (SMILES) | IC50 (F1F0-ATPase) [µM] | EC50 (Ramos cells) [µM]
O=C(/N=C(/NCc1ccc(F)c(Cl)c1)Nc1cccc(O)n1)c1ccc(F)c(F)c1 [Compound A-27] | < 10 | < 10
O=C(/N=C(/NCc1ccc(F)c(Cl)c1)Nc1cccc(O)n1)c1ccc(C(F)(F)F)cc1 [Compound A-28] | < 10 | < 10
CC1CCC(N/C(=N/C(=O)c2ccc(C(F)(F)F)cc2)Nc2cccc(O)n2)CC1 (stereo not drawn) [Compound A-29] | < 10 | < 10
O=C(/N=C(\Nc1cccc(O)n1)NC1CCC(F)(F)CC1)c1ccc(C(F)(F)F)cc1 [Compound A-30] | < 10 | < 10
O=C(/N=C(\Nc1cccc(O)n1)NC1CCC(F)(F)CC1)c1ccc(F)c(F)c1 [Compound A-31] | < 10 | < 10
O=C(/N=C(/NCc1ccccc1C(F)(F)F)Nc1cccc(O)n1)c1ccc(C(F)(F)F)cc1 [Compound A-32] | < 10 | < 10
O=C(/N=C(/NCc1cccc(C(F)(F)F)c1)Nc1cccc(O)n1)c1ccc(C(F)(F)F)cc1 [Compound A-33] | < 10 | < 10
O=C(/N=C(/NCc1ccc(C(F)(F)F)cc1)Nc1cccc(O)n1)c1ccc(C(F)(F)F)cc1 [Compound A-34] | < 10 | < 10
O=C(/N=C(/NCc1ccc(C(F)(F)F)cc1)Nc1cccc(O)n1)c1ccc(F)c(F)c1 [Compound A-35] | < 10 | < 10
O=C(/N=C(/NCc1ccc(F)c(F)c1)Nc1cccc(O)n1)c1ccc(C(F)(F)F)cc1 [Compound A-36] | < 10 | < 10
O=C(/N=C(/NCc1cc(F)c(F)c(F)c1)Nc1cccc(O)n1)c1ccc(C(F)(F)F)cc1 [Compound A-37] | < 10 | < 10
O=C(/N=C(/NCc1c(F)cc(F)cc1F)Nc1cccc(O)n1)c1ccc(C(F)(F)F)cc1 [Compound A-38] | < 10 | < 10
O=C(/N=C(\Nc1cccc(O)n1)NC1CCCCCC1)c1ccc(C(F)(F)F)cc1 [Compound A-39] | < 10 | < 10
O=C(/N=C(/NCC1CC1)Nc1cccc(O)n1)c1ccc(C(F)(F)F)cc1 [Compound A-40] | < 10 | < 10
CC(C)(C)N/C(=N/C(=O)c1ccc(C(F)(F)F)cc1)Nc1cccc(O)n1 [Compound A-41] | < 10 | < 10
O=C(/N=C(/NCC1CCCCC1)Nc1cccc(O)n1)c1ccc(C(F)(F)F)cc1 [Compound A-42] | < 10 | < 10
CC1CCCCC1NC(=NC(=O)c1ccc(C(F)(F)F)cc1)Nc1cccc(O)n1 (stereo not drawn) [Compound A-43] | < 10 | > 10
CC(C)(C)N/C(=N\C(=O)c1ccc(Cl)c(F)c1)Nc1cccc(O)n1 [Compound A-44] | < 10 | < 10
CC(C)(C)N/C(=N\C(=O)c1ccc(F)c(F)c1)Nc1cccc(O)n1 [Compound A-45] | < 10 | < 10
CC1(N/C(=N\C(=O)c2ccc(C(F)(F)F)cc2)Nc2cccc(O)n2)CC1 [Compound A-46] | < 10 | < 10
CC1(N/C(=N\C(=O)c2ccc(C(F)(F)F)cc2)Nc2cccc(O)n2)CCC1 [Compound A-47] | < 10 | < 10
O=C(/N=C(\Nc1cccc(O)n1)NC1CC1)c1ccc(C(F)(F)F)cc1 [Compound A-48] | < 10 | > 10
O=C(/N=C(/Nc1cccc(O)n1)NC1CC1)c1ccc(F)c(F)c1 [Compound A-49] | > 10 | > 10
O=C(/N=C(/Nc1cccc(O)n1)NC1CC1)c1ccc(Cl)c(F)c1 [Compound A-50] | < 10 | > 10

Structure (SMILES) | IC50 (F1F0-ATPase) [µM] | EC50 (Ramos cells) [µM]
CC(C)(N/C(=N/C(=O)c1ccc(C(F)(F)F)cc1)Nc1cccc(O)n1)C(F)(F)F [Compound A-51] | < 10 | < 10
O=C(/N=C(/NCC(F)(F)F)Nc1cccc(O)n1)c1ccc(C(F)(F)F)cc1 [Compound A-52] | < 10 | < 10
Cc1cc(CN/C(=N/C(=O)c2ccc(C(F)(F)F)cc2)Nc2cccc(O)n2)no1 [Compound A-53] | < 10 | < 10
Cc1cc(CN/C(=N/C(=O)c2ccc(F)c(F)c2)Nc2cccc(O)n2)no1 [Compound A-54] | < 10 | > 10
Cc1cc(CN/C(=N/C(=O)c2ccc(Cl)c(F)c2)Nc2cccc(O)n2)no1 [Compound A-55] | < 10 | > 10
O=C(/N=C(\NCC(F)(F)F)Nc1cccc(O)n1)c1ccc(Cl)cc1 [Compound A-56] | < 10 | < 10
CC(C)(N/C(=N\C(=O)c1ccc(Cl)cc1)Nc1cccc(O)n1)C(F)(F)F [Compound A-57] | < 10 | < 10
CC1(N/C(=N\C(=O)c2ccc(Cl)cc2)Nc2cccc(O)n2)CCC1 [Compound A-58] | < 10 | < 10
O=C(/N=C(/Nc1cccc(O)n1)NC(C1CC1)C1CC1)c1ccc(C(F)(F)F)cc1 [Compound A-59] | < 10 | < 10
O=C(/N=C(/NCc1cc(F)c(F)c(F)c1)Nc1cccc(O)n1)c1ccc(Cl)cc1 [Compound A-60] | < 10 | > 10
CC1(N/C(=N/C(=O)c2ccc(C(F)(F)F)cc2)Nc2cccc(O)n2)CCCC1 [Compound A-61] | < 10 | < 10
CC1(N/C(=N/C(=O)c2ccc(Cl)cc2)Nc2cccc(O)n2)CCCC1 [Compound A-62] | < 10 | < 10
O=C(N=C(Nc1cccc(O)n1)NC1CCC(C(F)(F)F)CC1)c1ccc(C(F)(F)F)cc1 (stereo not drawn) [Compound A-63] | < 10 | < 10
O=C(N=C(Nc1cccc(O)n1)NC1CCC(C(F)(F)F)CC1)c1ccc(Cl)cc1 (stereo not drawn) [Compound A-64] | < 10 | < 10
CC(=O)N(Cc1ccc(F)c(Cl)c1)/C(=N/C(=O)c1ccc(C(F)(F)F)cc1)Nc1cccc(O)n1 [Compound A-65] | < 10 | < 10
COc1cccc(N/C(=N\C(=O)c2ccc(C(F)(F)F)cc2)NCc2ccc(Cl)c(F)c2)n1 [Compound A-66] | > 10 | > 10
CC(NC(=NC(=O)c1ccc(C(F)(F)F)cc1)Nc1cccc(O)n1)c1ccccc1Cl (stereo not drawn) [Compound A-67] | < 10 | < 10
CC(NC(=NC(=O)c1ccc(C(F)(F)F)cc1)Nc1cccc(O)n1)c1cccc(Cl)c1 (stereo not drawn) [Compound A-68] | < 10 | < 10
CC(NC(=NC(=O)c1ccc(C(F)(F)F)cc1)Nc1cccc(O)n1)c1ccc(Cl)cc1 (stereo not drawn) [Compound A-69] | < 10 | < 10
O=C(/N=C(/NCc1ccccc1Cl)Nc1cccc(O)n1)c1ccc(F)c(F)c1 [Compound A-71] | < 10 | < 10
O=C(/N=C(/NCc1cccc(Cl)c1)Nc1cccc(O)n1)c1ccc(F)c(F)c1 [Compound A-72] | < 10 | < 10
O=C(/N=C(/NCc1ccccc1C(F)(F)F)Nc1cccc(O)n1)c1ccc(F)c(F)c1 [Compound A-73] | < 10 | < 10
O=C(/N=C(/NCc1cccc(C(F)(F)F)c1)Nc1cccc(O)n1)c1ccc(F)c(F)c1 [Compound A-74] | < 10 | < 10
O=C(/N=C(/NCc1cc(F)c(F)c(F)c1)Nc1cccc(O)n1)c1ccc(F)c(F)c1 [Compound A-75] | > 10 | > 10
